{
  "source": "patent EP4799701A2",
  "about": "“PYRIMID-2-YL-PYRAZOLE COMPOUNDS AS IRAK INHIBITORS” (Rigel Pharmaceuticals, Inc., priority 2022, dated 2023)",
  "key": {"TLR4-induced IL-23": {"test_system": "TLR4-induced IL-23", "assay": "LPS induced IL23p19 in THP-1 cells (IFNγ primed), IL-23p19 sandwich ELISA", "type": "cell-based, human", "settings": "human THP-1 cells; result in words", "excerpt": "LPS induced IL23p19 in THP-1 cells (with IFNy primed) Assay\nTHP-1 Cells (ATCC, Cat# TIB-202), Dimethyl Sulfoxide (DMSO) (Sigma-Aldrich, Cat# D2650), RPMI 1640 (Cellgro, Cat# 10-040-CM), Fetal Bovine Serum (Sigma, Cat# F4135), Albumin From Bovine Serum (BSA) (Sigma-Aldrich, Cat#A7906), LPS (Serotype K-235, Sigma, Product Number L 2143), IFNγ (Peprotech, Cat# 300-02), Capture antibody: Human IL-23p19 ELISA (e-Bioscience, Cat. # 14-7238-85), Detection antibody: Primary Mouse Biotinylated anti-human IL-12(p40/p70) (e-Bioscience, Cat. # 13-7129-85), Secondary HRP-conjugated Streptavidin (R&D Systems, Cat#DY998), 1x PBST Washing Buffer (PBS-Tween tablet) (VWR International, Cat#80058-558), ELISA Blocking Buffer (PBS with 1% BSA), ELISA Dilution Buffer (PBS with 1% BSA), 384 Well Flat-Bottom, MaxiSorp Black Immuno Plates (Thermo Scientific, Cat# 12-565-346), 384 Well Flat-Bottom, White Tissue Culture Plates (Thermo Scientific, Cat# 12-565-343), Super Signal ELISA Pico Chemiluminescent Substrate (Thermo Scientific, Cat#37070), Cell Titer Glo reagent (Promega, Cat#G7573), Positive control, IKK2VI inhibitor (Calbiochem, Cat#401483), AquaMax 4000 plate washer (Molecular Devices), Luminometer, Wallac Victor2 1420 Multilabel Counter.\nOn day 1, 50K/well THP-1 cells were seeded and primed with IFNγ (50ng/mL) in 384-well plates for about 18 hours in RPMI media with 10%FBS. On day 2, the compound was serially diluted in DMSO from 5 mM in 3-fold dilutions, and then diluted 1:125 in RPMI media with 10%FBS. […] IL-23p19 protein in 70 µL/well of supernatant was measured by sandwich ELISA, and 25 µl/well Cell Titer Glo reagent was added to the remaining cells to measure compound toxicity.\nMaxisorp immuno ELISA plates were pre-coated with 25 µL/well of anti-IL-23p19 capture antibody (2.5ug/mL) in PBS overnight at room temperature. […] The plates were read with a luminometer, and the chemiluminescence values were entered into Athena (Rigel) for curve fitting, EC50 calculation, and database storage. […]"}, "TLR7-induced TNF-α": {"test_system": "TLR7-induced TNF-α", "assay": "TNF-α in human monocyte-derived dendritic cells (gardiquimod)", "type": "cell-based", "settings": "human primary dendritic cells (DC); result in words", "protocol": "After 2 hours, the media including floating cells was carefully removed and 12 ml of fresh RPMI media (10% FBS) containing GM-CSF (100 ng/ml) and IL-4 (20 ng/ml) were added to the adherent monocytes.\nThe differentiated dendritic cells (DC) were harvested by centrifugation (1200 rpm/5 min)."}, "TLR2- induced TNF-α": {"test_system": "TLR2- induced TNF-α", "assay": "TLR2-induced TNF-α in human primary dendritic cells", "type": "cell-based", "settings": "human primary dendritic cells (DC); result in words"}},
  "data": [
    {"smiles": "CCO[C@H]1CC[C@H](n2cc(NC(=O)c3csc(-c4cn[nH]c4)n3)c(-c3ncccn3)n2)CC1", "note": "[Compound I-1, N-(1-((1r,4r)-4-ethoxycyclohexyl)-3-(pyrimidin-2-yl)-1H-pyrazol-4-yl)-2-(1H-pyrazol-4-yl)thiazole-4-carboxamide]", "values": [
      {"measurement": "TLR4-induced IL-23 production", "setting": "TLR4-induced IL-23", "value": "inhibits"},
      {"measurement": "TLR7- induced TNF-α production", "setting": "TLR7-induced TNF-α", "value": "blocks"},
      {"measurement": "TLR2- induced TNF-α production", "setting": "TLR2- induced TNF-α", "value": "blocks"}
    ]}
  ]
}
